US11365185B2, “Lysophosphatidic acid receptor 1 (LPAR1) inhibitor compounds” (Eli Lilly and Company, priority 2017, dated 2022)
Marks after values point to notes of the source that are not given here.

Key:
[1] = system: Human hepatic stellate cell line LX-2; experiment: Calcium Influx of Human Hepatic Stellate Cells (LX-2); type: cell-based; settings: LX-2 cells, LPA-stimulated calcium influx
Protocol: Calcium Influx of Human Hepatic Stellate Cells (LX-2)
Human hepatic stellate cell line LX-2 is purchased from EMD Millpore. LX-2 cells are seeded at 20,000-40,000 cells per well in a 96-well poly-D-lysine coated plate one day before the assay. Prior to the assay, the cells are washed once with assay buffer (HBSS containing 20 mM HEPES and 0.2% BSA) and then incubated in 50 μl of assay buffer for 60 minutes. Then 50 μl of a calcium indicator dye (Fluo-4 NW, Molecular Probes) are added to each well and incubation is continued for 30 minutes at 37° C. and then 30 minutes at room temperature. 50 μl of test compounds in 4% DMSO are added to the cells and incubation is continued at room temperature for 40 minutes. Cells are stimulated by the addition of 50 μl of 128 nM LPA and intracellular calcium is measured using the FLIPR TETRA (Molecular Devices). IC50 values are determined using “Genedata Screener” analysis tool.

[2] = target: human LPAR3 (Homo sapiens (Human), UniProt Q9UBY5); experiment: LPAR3 Calcium Flux Assay; type: cell-based; settings: U2OS cells overexpressing human LPAR3, LPA-stimulated calcium, FLIPR
Sequence of human LPAR3 (Q9UBY5 whole entry): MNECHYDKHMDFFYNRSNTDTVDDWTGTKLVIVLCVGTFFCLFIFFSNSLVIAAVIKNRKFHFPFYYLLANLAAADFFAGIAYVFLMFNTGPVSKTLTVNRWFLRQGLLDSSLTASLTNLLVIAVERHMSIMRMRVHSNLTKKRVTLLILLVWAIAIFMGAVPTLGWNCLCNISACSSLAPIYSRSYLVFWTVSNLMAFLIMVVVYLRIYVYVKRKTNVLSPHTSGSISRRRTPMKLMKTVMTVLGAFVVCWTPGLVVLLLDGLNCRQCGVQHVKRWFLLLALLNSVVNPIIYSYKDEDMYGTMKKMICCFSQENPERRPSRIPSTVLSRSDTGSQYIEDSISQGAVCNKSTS
Protocol: LPAR3 Calcium Flux Assays
(§1) A cDNA encoding the human LPAR3 receptor is synthesized and cloned into pDNA3 expression plasmid. The plasmid is transfected in U2OS cells using Lipofectamine 2000 (Invitrogen Corp., USA). Clones stably expressing human LPAR3 are selected using neomycin and identified as cells that show Ca-influx in response to LPA.
U2OS cells overexpressing human LPAR3 are seeded at 20,000-40,000 cells per well in a 96-well poly-D-lysine coated plate one day before the assay. Prior to the assay, the cells are washed once with assay buffer (HBSS containing 20 mM HEPES and 0.2% BSA) and then incubated in 50 μl of assay buffer for 60 minutes. Then 50 μl of a calcium indicator dye (Fluo-4 NW, Molecular Probes) are added to each well and incubation is continued for 30 minutes at 37° C. and then 30 minutes at room temperature. 50 μl of test compounds in 4% DMSO are added to the cells and incubation continued at room temperature for 40 minutes. Cells are stimulated by the addition of 50 μl of 128 nM LPA and intracellular calcium is measured using the FLIPR TETRA (Molecular Devices). IC50 values are determined using “Genedata Screener” analysis tool.

[3] = system: Male C57B1/6 mice; experiment: Diet-Induced Liver Inflammation and Fibrosis; type: in vivo; settings: for Peri-sinusoidal Fibrosis Score: vehicle 1.37; for Inflammation Score: vehicle 2.7
Protocol: Diet-Induced Liver Inflammation and Fibrosis
Male C57B1/6 mice (7-8 weeks old) are given free access to food and water. Mice are fed with high fat, high sucrose and high cholesterol food for 196 days. Then animals will be administrated orally with vehicle or test compounds once daily for 77 days at a volume of 5 ml/kg. Body weight and food intake will be measured twice a week, after two weeks, BW and FI will be measured once a week. At the end of study, animals will be euthanized by CO2 suffocation. Liver samples of the animals are collected and fixed in 10% NBF. Liver samples are prepared after 20 to 24 hours of fixation in 10% NBF and prepared into FFPE blocks. Slide sections of FFPE blocks are processed with H&E and Masson's Trichrome staining. Histopathology interpretation and results will be provided by qualified pathologists. The data are plotted using Graphpad prism and statistical differences between groups determined.

[4] = target: T1, LPAR1 (Homo sapiens (Human), UniProt Q92633); experiment: LPAR1 Calcium Flux Assay; type: cell-based; settings: U937 cells overexpressing human LPAR1, LPA-stimulated calcium, FLIPR
Protocol: LPAR1 Calcium Flux Assays
as §1, with “LPAR1” for “LPAR3”, “U937” for “U2OS”, “puromycin” for “neomycin”
Target sequence in this assay (Q92633 whole entry): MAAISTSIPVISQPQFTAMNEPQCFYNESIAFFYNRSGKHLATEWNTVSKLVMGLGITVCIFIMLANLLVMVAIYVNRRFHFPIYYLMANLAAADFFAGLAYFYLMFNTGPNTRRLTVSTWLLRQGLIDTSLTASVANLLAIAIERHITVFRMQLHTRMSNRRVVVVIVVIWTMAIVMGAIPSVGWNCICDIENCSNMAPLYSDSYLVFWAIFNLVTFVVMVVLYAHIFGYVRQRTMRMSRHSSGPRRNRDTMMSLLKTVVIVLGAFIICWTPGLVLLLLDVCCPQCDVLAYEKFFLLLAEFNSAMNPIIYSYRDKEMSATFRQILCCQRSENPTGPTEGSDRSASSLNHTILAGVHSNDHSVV
U937 cells overexpressing human LPAR1 are seeded at 100,000 cells per well in a 96-well fibronectin (10 ug/ml) coated plate in 60 μl of assay buffer (HBSS containing 20 mM HEPES and 0.2% BSA) and then incubated for 60 minutes. Then 50 μl of a calcium indicator dye (Fluo-4 NW, Molecular Probes) are added to each well and incubation continued for 30 minutes at 37° C. and then 30 minutes at room temperature. 50 μl of test compounds in 4% DMSO are added to the cells and incubation continued at room temperature for 40 minutes. Cells are the stimulated by the addition of 50 μl of 128 nM LPA and intracellular calcium is measured using the FLIPR TETRA (Molecular Devices). IC50 values are determined using “Genedata Screener” analysis tool.

[5] = Rodent Pharmacokinetics - Rat PK; type: in vivo, male Sprague-Dawley rats; settings: male, Sprague-Dawley, plasma
Protocol: (§2) The pharmacokinetics of compounds are determined in male Sprague-Dawley rats or C57 mice. The rats are administered a single 1 mg/kg intravenous (IV) and 10 mg/kg oral gavage (PO) dose. The vehicles are 20% Captisol w/v in 25 mM NaPO4 buffer, pH8 and 1% hydroxyethylcellulose/0.25% polysorbate 80 and 0.05% antifoam 1510-US in distilled water for the intravenous and oral dose, respectively. Blood samples are collected at predose (PO only), 0.08 (IV only), 0.25, 0.5, 1, 2, 4, 8, 12 and 24 h after initiation of compound administration. Blood samples are centrifuged to obtain plasma. The plasma samples are analyzed by LC-MS/MS to determine compound concentrations.

[6] = Rodent Pharmacokinetics - Mouse PK; type: in vivo, C57 mice; settings: C57, plasma
Protocol: as §2

[7] = system: Male C57BL/6J mice; experiment: Mouse Intravenous LPA-Induced Histamine and Eicosanoids Release; type: in vivo; settings: 10 mg/kg orally 2 hours before intravenous LPA; plasma
Protocol: Mouse Intravenous LPA-Induced Histamine and Eicosanoids Release
A mouse intravenous LPA-induced histamine and eicosanoids release model is utilized to determine the in vivo potency of the compounds of the present invention. Male C57BL/6J mice weighing 20-25 grams are given free access to standard mouse chow and water. LPA is dissolved in 0.1% fatty acid-free bovine serum albumin to generate solution at 2 mg/mL. Test compounds are formulated in 0.5% methyl cellulose plus 0.25% Tween 80 to generate required concentrations one day before the experiment and stored in a refrigerator until use. Animals are dosed orally with test compounds at 10 ml/kg 2 hours before the intravenous LPA dosing (300 ug per mouse) with 30 gauge needles through tail vain. Two hours after LPA dosing the animals are euthanized by CO2 suffocate. Blood will be collected by cardiac puncture. Blood samples are kept on ice for more than 5 minutes and centrifuged at 4000 rpm for 10 minutes at 4° C. to generate supernatant plasma. The plasma histamine, methylimidazol acetic acid and eicosanoids levels are measured by LC/MS.

[8] = target: T1, LPAR1; experiment: LPAR1 Membrane Binding Assay; settings: membrane containing LPAR1, radio labeled ligand, SPA
Protocol: LPAR1 Membrane Binding Assay
The ability of a compound to inhibit binding of a ligand (1-(4′-(4-(((benzyloxy)carbonyl)amino)-3-methylisoxazol-5-yl)-[1,1′-biphenyl]-4-yl)cyclopropane-1-carboxylic acid) to LPAR1 is assessed via a membrane binding assay. Membrane containing LPAR1 was purchased from Cerep (Cat. No. 290312RB). Prior to the assay, membrane is thawed and homogenized for 15 seconds. 50 μl of test compounds and 50 μl of radio labeled ligand are added to the 96-well plates and then 50 of μl membrane (50-400 ug/ml) are added. Next, 50 μl of SPA PVT WGA beads are added (1-5 mg/ml) and the plates are sealed and incubated at room temperate for 5 minutes. Radio activity is measured by Beta Counter and IC50 values are determined using “Genedata Screener” analysis tool.
Target sequence in this assay (Q92633 whole entry, species assumed): as the sequence (Q92633 whole entry) above

[9] = 10 mg/kg orally once daily for 77 days
[10] = 30 mg/kg orally once daily for 77 days

For `CC(C)c1cncc(Nc2c(-c3ccc(-c4ccc(C5(C(=O)O)CC5)cc4)cn3)cnn2C)n1` [Example 27, 1-[4-[6-[5-[(6-isopropylpyrazin-2-yl)amino]-1-methyl-pyrazol-4-yl]-3-pyridyl]phenyl]cyclopropanecarboxylic Acid], the IC50 [1] was 8.88 nM, the IC50 [2] was 1980 nM and the “Peri-sinusoidal Fibrosis Score” value [3, 9] was 1.30. For the same compound, the “Inflammation Score” value [3, 9] was 2.1*, the “Peri-sinusoidal Fibrosis Score” value [3, 10] was 1.07^$ and the “Inflammation Score” value [3, 10] was 2.3^#. For the same compound, the IC50 [4] was 20.6 nM, the AUC ([5]; 10 mg/kg, PO) was 80.1 µM·h and the clearance ([5]; intravenous, 1 mg/kg) was 4.23 mL/min/kg. The Vd ([5]; intravenous, 1 mg/kg, read-out: Vdss) was 0.799 L/kg, the bioavailability ([5]; oral, 10 mg/kg) was 93.6% and the AUC ([6]; 10 mg/kg, PO) was 38.4 µM·h. The clearance ([6]; intravenous) was 3.5 mL/min/kg, the Vd ([6]; intravenous, read-out: Vdss) was 0.953 L/kg and the bioavailability ([6]; oral, 10 mg/kg) was 40.8%. For the same compound, the “% of inhibition, histamine” value [7] was 89.5 ± 1.6%, the “% of inhibition, methylimidazoleacetic acid” value [7] was 100.8 ± 3.4% and the Ki [8] was 15.3 nM.
